Results from patent EP4722205A1, “HETEROCYCLIC COMPOUND AND NOXIOUS ARTHROPOD-CONTROLLING COMPOSITION CONTAINING SAME” (Sumitomo Chemical Company, Limited, priority 2023, dated 2024).

Tests used:
Format in all cases: in vivo
[1] = tested on: cotton aphids (Aphis gossypii); assay: Test Method 1: foliar spray on cucumber seedling infested with cotton aphids (Formulation example 1); details: 120 h, spray 10 mL/seedling, examined after 5 days, 25°C, read-out: controlling value
[2] = tested on: diamondback moth (Plutella xylostella); assay: Test Method 10: sprayed cabbage seedling, third instar diamondback moth (Formulation example 5); details: 144 h, third instar larvae, after 6 days, 25°C, read-out: controlling value
Protocol: (§1) The following tests in the test examples below were conducted at 25°C.
(§2) Cabbage (Brassicae oleracea) seedling (on the developmental stage of the third to fourth true leaf) is planted in a cup, and the diluted solutions are sprayed into the seedling at a ratio of 20 mL/seedling. Thereafter, ten (10) diamondback moth (Plutella xylostella) at the third instar larval stage are released onto the seedling. After 6 days, the number of the surviving insects is counted, and the mortality of insects is calculated by the following equation. [formula]

[3] = tested on: diamondback moth (Plutella xylostella); assay: Test Method 4: sprayed cabbage leaves fed to second instar diamondback moth; details: 120 h, second instar larvae, after 5 days, 25°C, read-out: mortality of insects
Protocol: (§3) Next, an efficacy of the present compound on controlling harmful arthropods is shown by Test examples. The following tests in the test examples below were conducted at 25°C.
Test compounds are made to a formulation according to a similar method to that described in the Formulation example 1, and thereto is added water containing 0.03 v/v% of Shindain (registered trademark) to prepare a diluted solution containing a prescribed concentration of the test compound.
(§4) Cabbage (Brassicae oleracea) seedling (on the developmental stage of the second to third true leaf) is planted in a cup, and the diluted solutions are sprayed into the seedling at a ratio of 20 mL/seedling. Thereafter, the stem and leaf thereof are cut out and then is installed into a cup that is covered with filter paper on the bed of the cup. Five (5) diamondback moth (Plutella xylostella) at the second instar larval stage are released into the cup. After 5 days, the number of the surviving insects is counted, and the mortality of insects is calculated by the following equation. [formula]

[4] = tested on: cotton aphids (Aphis gossypii); assay: Test Method 11: foliar spray on cucumber seedling infested with cotton aphids (Formulation example 5); details: 120 h, spray 10 mL/seedling, examined after 5 days, 25°C, read-out: controlling value
[5] = tested on: common house mosquitos (Culex pipiens pallens); assay: Test Method 12: mosquito larvae released into diluted solution; details: 24 h, last instar larvae, after 1 day, 25°C, read-out: controlling value
Protocol: as §1
Into the diluted solution, 30 common house mosquitos (Culex pipiens pallens) at the last instar larval stage are released, and after 1 day, the state of the house mosquito larvae is examined, and the mortality of insects is calculated by the following equation. [formula]

[6] = tested on: Western corn rootworms (Diabrotica virgifera virgifera); assay: Test Method 5: corn seedling immersion, Western corn rootworm; details: 120 h, read-out: mortality of insects
Protocol: as §3
Each 1 mg of the test compounds is dissolved into 50 µL of a mixed solution of polyoxyethylene sorbitan monolaurate and acetone (polyoxyethylene sorbitan monolaurate: acetone = 5 : 95 (v/v ratio)). Thereto is added water containing 0.03% by volume of Shindain (registered trademark) to prepare a diluted solution containing a prescribed concentration of the test compound.
A young entire seedling of Corns (Zea mays) is immersed into the diluted solution for 30 seconds. Thereafter, each two grains of the seedlings are installed in a plastic petri dish ([…]), and 10 Western corn rootworms (Diabrotica virgifera virgifera) at the second instar larval stage are released into the dish. After 5 days, the number of the dead insects is counted, and the mortality of insects is calculated by the following equation. Mortality(%) = (Numberofdeadinsects/10) × 100 [formula]

[7] = tested on: cotton worm (Spodoptera litura); assay: Test Method 9: sprayed cabbage seedling, third instar cotton worm (Formulation example 5); details: 144 h, third instar larvae, after 6 days, 25°C, read-out: controlling value
Protocol: as §1
as §2, with “cotton worm (Spodoptera litura)” for “diamondback moth (Plutella xylostella)”

[8] = tested on: cotton worm (Spodoptera litura); assay: Test Method 3: sprayed cabbage leaves fed to second instar cotton worm; details: 120 h, second instar larvae, after 5 days, 25°C, read-out: mortality of insects
Protocol: as §1
as §4, with “cotton worm (Spodoptera litura)” for “diamondback moth (Plutella xylostella)”

[9] = tested on: housefly (Musca domestica); assay: Test Method 8: coated container contact test, housefly; details: 24 h, 40 mg/m^2, female adults, after one (1) day, 25°C, read-out: mortality of insects
Protocol: as §3
(§5) Acetone solution in which test compounds are adjusted to 800 ppm are prepared, and the solution is poured into a container having an internal volume of 20 mL, and the solution is coated uniformly on an inner face of the container such that the test compound is made to be 40 mg/m^2, and the container is then dried.
Five (5) housefly (Musca domestica) female adults are placed in the container, and the cup is covered with the lid. After the prescribed timing is passed, the state of the housefly is examined, and the mortality of insects is calculated by the following equation. [formula]

[10] = tested on: German cockroach (Blattella germanica); assay: Test Method 6: coated container contact test, German cockroach; details: 72 h, read-out: mortality of insects
Protocol: as §3
as §5, with “50” for “20”
Five (5) German cockroach (Blattella germanica) male adults are placed in the container, and the cup is covered with the lid. After the prescribed timing is passed, the state of the German cockroach is examined, and the mortality of insects is calculated by the following equation. [formula]

Row | SMILES | mortality at 500 ppm [1] [%] | mortality at 50 ppm [2] [%] | mortality at 200 ppm [2] [%] | mortality at 500 ppm [3] [%] | mortality at 50 ppm [4] [%] | mortality at 200 ppm [4] [%] | mortality at 3.5 ppm [5] [%] | mortality at 200 ppm [6] [%] | mortality at 50 ppm [7] [%] | mortality at 200 ppm [7] [%] | mortality at 500 ppm [8] [%] | mortality at 40 mg/m2 [9] [%] | mortality at 40 mg/m2 [10] [%]
1 | CCS(=O)(=O)c1c(C(=O)N(C)c2nc3ccc(C(F)(F)F)cc3s2)nc2ccc(I)cn12 [compound 26] | ≥ 90 | ≥ 80 | ≥ 80 | ≥ 80 | ≥ 90 | ≥ 90 | ≥ 90 | ≥ 80 | – | – | – | – | –
2 | CCS(=O)(=O)c1c(C(=O)N(C)c2nc3ccc(F)c(F)c3s2)nc2ccc(I)cn12 [compound 33] | ≥ 90 | ≥ 80 | ≥ 80 | ≥ 80 | ≥ 90 | ≥ 90 | ≥ 90 | ≥ 80 | ≥ 80 | ≥ 80 | ≥ 80 | ≥ 80 | –
3 | CCS(=O)(=O)c1c(C(=O)N(C)c2nc3cc(F)c(F)cc3s2)nc2ccc(I)cn12 [compound 34] | ≥ 90 | ≥ 80 | ≥ 80 | ≥ 80 | ≥ 90 | ≥ 90 | ≥ 90 | ≥ 80 | ≥ 80 | ≥ 80 | ≥ 80 | ≥ 80 | –
4 | CCS(=O)(=O)c1c(C(=O)N(C)c2nc3cc(F)c(F)c(F)c3s2)nc2ccc(Br)cn12 [compound 44] | ≥ 90 | ≥ 80 | ≥ 80 | ≥ 80 | – | ≥ 90 | ≥ 90 | – | ≥ 80 | ≥ 80 | ≥ 80 | ≥ 80 | ≥ 80
5 | CCS(=O)(=O)c1c(C(=O)N(C)c2nc3c(F)c(F)c(F)c(F)c3s2)nc2ccc(I)cn12 [compound 77] | – | – | – | ≥ 80 | – | – | – | ≥ 80 | ≥ 80 | ≥ 80 | ≥ 80 | ≥ 80 | –
6 | CCS(=O)(=O)c1c(C(=O)N(C)c2nc3cc(Cl)c(F)cc3s2)nc2ccc(I)cn12 [compound 101] | – | ≥ 80 | ≥ 80 | ≥ 80 | – | – | – | ≥ 80 | ≥ 80 | ≥ 80 | – | – | –
7 | CCS(=O)(=O)c1ccc(NC)nc1C(=O)N(C)c1nc2cc(F)c(F)c(F)c2s1 [compound 138] | ≥ 90 | ≥ 80 | ≥ 80 | ≥ 80 | ≥ 90 | ≥ 90 | ≥ 90 | – | ≥ 80 | ≥ 80 | ≥ 80 | ≥ 80 | –
8 | CCS(=O)(=O)c1ccc(NC2CC2)nc1C(=O)N(C)c1nc2cc(F)c(F)c(F)c2s1 [compound 139] | – | ≥ 80 | ≥ 80 | ≥ 80 | ≥ 90 | ≥ 90 | ≥ 90 | – | ≥ 80 | ≥ 80 | ≥ 80 | ≥ 80 | –
